These results are taken from ChEMBL document CHEMBL1142807, “Diprolyl nitriles as potent dipeptidyl peptidase IV inhibitors” (Bioorg Med Chem Lett, 2005).

The nature of data set [1]: Inhibitory activity against Dipeptidyl peptidase IV.
A short description of data set [2]: Half Life at 37 degree C and 10 uM in pH 7.0 buffer. The data set is classed as ADME.

Broadly, the Ki is a dissociation constant, usually derived from enzyme kinetics or from competition with a known ligand. A lower Ki goes with tighter binding. What is called half-life is the time needed for the level to fall by half in the phase considered. Lower therefore signals rapid decline.

Turning to `N#C[C@@H]1C[C@@H]2C[C@@H]2N1C(=O)[C@@H]1C[C@H](NS(=O)(=O)c2ccc(Cl)cc2)CN1`, in data set [1], the affinity corresponds to a Ki of 0.039 µM.

Regarding `CC[C@H]1CCN[C@@H]1C(=O)N1[C@H](C#N)C[C@@H]2C[C@@H]21`, in data set [1], the affinity corresponds to a Ki of 0.29 µM. The same measure, in the same setting: under `N#C[C@@H]1C[C@@H]2C[C@@H]2N1C(=O)[C@@H]1CCCCN1` stands greater than 10 µM; under `C[C@H]1CCN[C@@H]1C(=O)N1[C@H](C#N)C[C@@H]2C[C@@H]21`, 0.126 µM. Still for that read-out and setting: under `CC(C)(C)CC(=O)N[C@@H]1CN[C@H](C(=O)N2[C@H](C#N)C[C@@H]3C[C@@H]32)C1` stands 0.133 µM; under `CC1(C)CCN[C@@H]1C(=O)N1[C@H](C#N)C[C@@H]2C[C@@H]21`, 0.037 µM. `N#Cc1ccc(NC2CN[C@H](C(=O)N3[C@H](C#N)C[C@@H]4C[C@@H]43)C2)cc1Cl` (stereo not given in full) gave a half-life at 10 µM in data set [2] of 15 h. Regarding `N#C[C@@H]1C[C@@H]2C[C@@H]2N1C(=O)[C@H]1NC[C@@H]2C[C@@H]21`, in data set [1], the Ki was found to be 0.052 µM. In turn, `N#C[C@@H]1C[C@@H]2C[C@@H]2N1C(=O)[C@@H]1CCCN1` registered a Ki in data set [1] of 0.305 µM.

`N#C[C@@H]1C[C@@H]2C[C@@H]2N1C(=O)[C@@H]1C[C@H](NC(=O)OCC2c3ccccc3-c3ccccc32)CN1` displayed a Ki in data set [1] of 0.057 µM. The same measure, in the same setting: under `CC(C)(C)OC(=O)N[C@@H]1CN[C@H](C(=O)N2[C@H](C#N)C[C@@H]3C[C@@H]32)C1` stands 0.14 µM; under `N#C[C@@H]1C[C@@H]2C[C@@H]2N1C(=O)[C@H]1CCCN1`, greater than 10 µM. Turning to `N#C[C@@H]1C[C@@H]2C[C@@H]2N1C(=O)[C@@H]1C[C@@H]2C[C@@H]2N1`, the Ki in data set [1] was greater than 10 µM. The same measure, in the same setting: under `N#C[C@@H]1C[C@@H]2C[C@@H]2N1C(=O)[C@@H]1CCN1` stands greater than 10 µM; under `CC(C)(C)OC(=O)NC1CN[C@H](C(=O)N2[C@H](C#N)C[C@@H]3C[C@@H]32)C1` (single isomer, unassigned), 0.492 µM.
